Series [1] has as its target T1, human DAT V152A (Homo sapiens, UniProt Q01959, V152A). The series can be described thus: [^3H]dopamine uptake in transfected COS7 cells. Type of series: cell-based. The conditions noted are these: V152A vs WT.
In series [2] the target is T2, human DAT V152I (Homo sapiens, UniProt Q01959, V152I). The series can be described thus: [^3H]dopamine uptake in transfected COS7 cells. Type of series: cell-based. The note with it: V152I vs WT.
The target of series [3] is T1, human DAT V152A. The series can be described thus: [^3H]CFT binding on intact transfected COS7 cells. The note with it: V152A vs WT.
In series [4] the target is T2, human DAT V152I. The series can be described thus: [^3H]CFT binding on intact transfected COS7 cells. The conditions noted are these: V152I vs WT.
Substrate in series [5]: NCCc1ccc(O)c(O)c1
The series can be described thus: cells, lysate or membranes. The conditions noted are these: COS7 cells, 5 min uptake at room temperature, pH 7.4.

This note sets out measurements from PMC3703859 (Neuropharmacology, 2010).

As for `CCCCN1[C@@H]2CC[C@H]1CC(OC(c1ccc(F)cc1)c1ccc(F)cc1)C2` (stereo partly drawn) [JHW007], the “decrease in potency in inhibition of [^3H]dopamine uptake versus wild type” value in series [1] is given as ~ 2 fold; in series [2] it was ~ 6 fold. In addition, the “reduction in apparent affinity in [^3H]CFT competition binding versus wild type” value in series [3] and in series [4] was 10–20 fold throughout.

On to `CN1[C@@H]2CC[C@H]1C[C@@H](OC(c1ccccc1)c1ccccc1)C2` [BZT, benztropine], for which the “decrease in potency in inhibition of [^3H]dopamine uptake versus wild type” value is reported as ~ 3 fold in series [1] and “no change” in series [2]. The “reduction in apparent affinity in [^3H]CFT competition binding versus wild type” value in series [3] and in series [4] was ~ 15 fold throughout.

B1: wild type human DAT (Homo sapiens) (protein)
chain: MSKSKCSVGLMSSVVAPAKEPNAVGPKEVELILVKEQNGVQLTSSTLTNPRQSPVEAQDRETWGKKIDFLLSVIGFAVDLANVWRFPYLCYKNGGGAFLVPYLLFMVIAGMPLFYMELALGQFNREGAAGVWKICPILKGVGFTVILISLYVGFFYNVIIAWALHYLFSSFTTELPWIHCNNSWNSPNCSDAHPGDSSGDSSGLNDTFGTTPAAEYFERGVLHLHQSHGIDDLGPPRWQLTACLVLVIVLLYFSLWKGVKTSGKVVWITATMPYVVLTALLLRGVTLPGAIDGIRAYLSVDFYRLCEASVWIDAATQVCFSLGVGFGVLIAFSSYNKFTNNCYRDAIVTTSINSLTSFSSGFVVFSFLGYMAQKHSVPIGDVAKDGPGLIFIIYPEAIATLPLSSAWAVVFFIMLLTLGIDSAMGGMESVITGLIDEFQLLHRHRELFTLFIVLATFLLSLFCVTNGGIYVFTLLDHFAAGTSILFGVLIEAIGVAWFYGVGQFSDDIQQMTGQRPSLYWRLCWKLVSPCFLLFVVVVSIVTFRPPHYGAYIFPDWANALGWVIATSSMAMVPIYAAYKFCSLPGSFREKLAYAIAPEKDRELVDRGEVRQFTLRHWLKV
On to B1, for which the Km in series [5] (other: WT DAT) is 986 [861–1130] nM.

B2: human DAT A479V/A480V (Homo sapiens; A479V/A480V) (protein)
chain: MSKSKCSVGLMSSVVAPAKEPNAVGPKEVELILVKEQNGVQLTSSTLTNPRQSPVEAQDRETWGKKIDFLLSVIGFAVDLANVWRFPYLCYKNGGGAFLVPYLLFMVIAGMPLFYMELALGQFNREGAAGVWKICPILKGVGFTVILISLYVGFFYNVIIAWALHYLFSSFTTELPWIHCNNSWNSPNCSDAHPGDSSGDSSGLNDTFGTTPAAEYFERGVLHLHQSHGIDDLGPPRWQLTACLVLVIVLLYFSLWKGVKTSGKVVWITATMPYVVLTALLLRGVTLPGAIDGIRAYLSVDFYRLCEASVWIDAATQVCFSLGVGFGVLIAFSSYNKFTNNCYRDAIVTTSINSLTSFSSGFVVFSFLGYMAQKHSVPIGDVAKDGPGLIFIIYPEAIATLPLSSAWAVVFFIMLLTLGIDSAMGGMESVITGLIDEFQLLHRHRELFTLFIVLATFLLSLFCVTNGGIYVFTLLDHFVVGTSILFGVLIEAIGVAWFYGVGQFSDDIQQMTGQRPSLYWRLCWKLVSPCFLLFVVVVSIVTFRPPHYGAYIFPDWANALGWVIATSSMAMVPIYAAYKFCSLPGSFREKLAYAIAPEKDRELVDRGEVRQFTLRHWLKV
B2: the Km in series [5] (other: A479V/A480V) is 1620 [1350–1940] nM.

B3: human DAT N157A (Homo sapiens; N157A) (protein)
chain: MSKSKCSVGLMSSVVAPAKEPNAVGPKEVELILVKEQNGVQLTSSTLTNPRQSPVEAQDRETWGKKIDFLLSVIGFAVDLANVWRFPYLCYKNGGGAFLVPYLLFMVIAGMPLFYMELALGQFNREGAAGVWKICPILKGVGFTVILISLYVGFFYAVIIAWALHYLFSSFTTELPWIHCNNSWNSPNCSDAHPGDSSGDSSGLNDTFGTTPAAEYFERGVLHLHQSHGIDDLGPPRWQLTACLVLVIVLLYFSLWKGVKTSGKVVWITATMPYVVLTALLLRGVTLPGAIDGIRAYLSVDFYRLCEASVWIDAATQVCFSLGVGFGVLIAFSSYNKFTNNCYRDAIVTTSINSLTSFSSGFVVFSFLGYMAQKHSVPIGDVAKDGPGLIFIIYPEAIATLPLSSAWAVVFFIMLLTLGIDSAMGGMESVITGLIDEFQLLHRHRELFTLFIVLATFLLSLFCVTNGGIYVFTLLDHFAAGTSILFGVLIEAIGVAWFYGVGQFSDDIQQMTGQRPSLYWRLCWKLVSPCFLLFVVVVSIVTFRPPHYGAYIFPDWANALGWVIATSSMAMVPIYAAYKFCSLPGSFREKLAYAIAPEKDRELVDRGEVRQFTLRHWLKV
For the molecule B3, in series [5] (other: N157A), the Km was 3240 [2720–3870] nM.

B4: human DAT N157C (Homo sapiens; N157C) (protein)
chain: MSKSKCSVGLMSSVVAPAKEPNAVGPKEVELILVKEQNGVQLTSSTLTNPRQSPVEAQDRETWGKKIDFLLSVIGFAVDLANVWRFPYLCYKNGGGAFLVPYLLFMVIAGMPLFYMELALGQFNREGAAGVWKICPILKGVGFTVILISLYVGFFYCVIIAWALHYLFSSFTTELPWIHCNNSWNSPNCSDAHPGDSSGDSSGLNDTFGTTPAAEYFERGVLHLHQSHGIDDLGPPRWQLTACLVLVIVLLYFSLWKGVKTSGKVVWITATMPYVVLTALLLRGVTLPGAIDGIRAYLSVDFYRLCEASVWIDAATQVCFSLGVGFGVLIAFSSYNKFTNNCYRDAIVTTSINSLTSFSSGFVVFSFLGYMAQKHSVPIGDVAKDGPGLIFIIYPEAIATLPLSSAWAVVFFIMLLTLGIDSAMGGMESVITGLIDEFQLLHRHRELFTLFIVLATFLLSLFCVTNGGIYVFTLLDHFAAGTSILFGVLIEAIGVAWFYGVGQFSDDIQQMTGQRPSLYWRLCWKLVSPCFLLFVVVVSIVTFRPPHYGAYIFPDWANALGWVIATSSMAMVPIYAAYKFCSLPGSFREKLAYAIAPEKDRELVDRGEVRQFTLRHWLKV
As for B4, in series [5] (other: N157C), the Km is 2710 [2170–3380] nM.

B5: human DAT V152A (Homo sapiens; V152A) (protein)
chain: MSKSKCSVGLMSSVVAPAKEPNAVGPKEVELILVKEQNGVQLTSSTLTNPRQSPVEAQDRETWGKKIDFLLSVIGFAVDLANVWRFPYLCYKNGGGAFLVPYLLFMVIAGMPLFYMELALGQFNREGAAGVWKICPILKGVGFTVILISLYAGFFYNVIIAWALHYLFSSFTTELPWIHCNNSWNSPNCSDAHPGDSSGDSSGLNDTFGTTPAAEYFERGVLHLHQSHGIDDLGPPRWQLTACLVLVIVLLYFSLWKGVKTSGKVVWITATMPYVVLTALLLRGVTLPGAIDGIRAYLSVDFYRLCEASVWIDAATQVCFSLGVGFGVLIAFSSYNKFTNNCYRDAIVTTSINSLTSFSSGFVVFSFLGYMAQKHSVPIGDVAKDGPGLIFIIYPEAIATLPLSSAWAVVFFIMLLTLGIDSAMGGMESVITGLIDEFQLLHRHRELFTLFIVLATFLLSLFCVTNGGIYVFTLLDHFAAGTSILFGVLIEAIGVAWFYGVGQFSDDIQQMTGQRPSLYWRLCWKLVSPCFLLFVVVVSIVTFRPPHYGAYIFPDWANALGWVIATSSMAMVPIYAAYKFCSLPGSFREKLAYAIAPEKDRELVDRGEVRQFTLRHWLKV
As to B5, the Km in series [5] (other: V152A) is 3090 [2310–4130] nM.

B6: human DAT V152I (Homo sapiens; V152I) (protein)
chain: MSKSKCSVGLMSSVVAPAKEPNAVGPKEVELILVKEQNGVQLTSSTLTNPRQSPVEAQDRETWGKKIDFLLSVIGFAVDLANVWRFPYLCYKNGGGAFLVPYLLFMVIAGMPLFYMELALGQFNREGAAGVWKICPILKGVGFTVILISLYIGFFYNVIIAWALHYLFSSFTTELPWIHCNNSWNSPNCSDAHPGDSSGDSSGLNDTFGTTPAAEYFERGVLHLHQSHGIDDLGPPRWQLTACLVLVIVLLYFSLWKGVKTSGKVVWITATMPYVVLTALLLRGVTLPGAIDGIRAYLSVDFYRLCEASVWIDAATQVCFSLGVGFGVLIAFSSYNKFTNNCYRDAIVTTSINSLTSFSSGFVVFSFLGYMAQKHSVPIGDVAKDGPGLIFIIYPEAIATLPLSSAWAVVFFIMLLTLGIDSAMGGMESVITGLIDEFQLLHRHRELFTLFIVLATFLLSLFCVTNGGIYVFTLLDHFAAGTSILFGVLIEAIGVAWFYGVGQFSDDIQQMTGQRPSLYWRLCWKLVSPCFLLFVVVVSIVTFRPPHYGAYIFPDWANALGWVIATSSMAMVPIYAAYKFCSLPGSFREKLAYAIAPEKDRELVDRGEVRQFTLRHWLKV
With B6, the Km in series [5] (other: V152I) was 4370 [3180–6010] nM.

B7: human DAT S422A (Homo sapiens; S422A) (protein)
chain: MSKSKCSVGLMSSVVAPAKEPNAVGPKEVELILVKEQNGVQLTSSTLTNPRQSPVEAQDRETWGKKIDFLLSVIGFAVDLANVWRFPYLCYKNGGGAFLVPYLLFMVIAGMPLFYMELALGQFNREGAAGVWKICPILKGVGFTVILISLYVGFFYNVIIAWALHYLFSSFTTELPWIHCNNSWNSPNCSDAHPGDSSGDSSGLNDTFGTTPAAEYFERGVLHLHQSHGIDDLGPPRWQLTACLVLVIVLLYFSLWKGVKTSGKVVWITATMPYVVLTALLLRGVTLPGAIDGIRAYLSVDFYRLCEASVWIDAATQVCFSLGVGFGVLIAFSSYNKFTNNCYRDAIVTTSINSLTSFSSGFVVFSFLGYMAQKHSVPIGDVAKDGPGLIFIIYPEAIATLPLSSAWAVVFFIMLLTLGIDAAMGGMESVITGLIDEFQLLHRHRELFTLFIVLATFLLSLFCVTNGGIYVFTLLDHFAAGTSILFGVLIEAIGVAWFYGVGQFSDDIQQMTGQRPSLYWRLCWKLVSPCFLLFVVVVSIVTFRPPHYGAYIFPDWANALGWVIATSSMAMVPIYAAYKFCSLPGSFREKLAYAIAPEKDRELVDRGEVRQFTLRHWLKV
Take B7: the Km in series [5] (other: S422A) was 3950 [3730–4190] nM.
